Here are results for 6 compounds from ChEMBL document CHEMBL2321830 (J Med Chem, 2013).

Changes are numbered by the printed parent chain.

In test [1] the target is T1, Aldo-keto reductase family 1 member C4 (Homo sapiens, UniProt P17516).
T1 sequence (P17516 whole entry): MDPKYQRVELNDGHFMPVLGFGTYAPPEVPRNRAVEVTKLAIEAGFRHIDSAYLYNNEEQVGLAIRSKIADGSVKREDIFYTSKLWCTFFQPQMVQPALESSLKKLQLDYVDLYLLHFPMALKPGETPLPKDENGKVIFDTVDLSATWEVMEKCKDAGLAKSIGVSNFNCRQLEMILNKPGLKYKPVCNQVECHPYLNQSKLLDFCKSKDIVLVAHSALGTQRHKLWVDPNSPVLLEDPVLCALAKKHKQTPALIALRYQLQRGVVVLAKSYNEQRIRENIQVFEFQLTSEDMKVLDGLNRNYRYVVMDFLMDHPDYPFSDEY
As to the kind of experiment: Inhibition of human recombinant AKR1C4-mediated NADP+-dependent oxidation of S-(+)-1,2,3,4-tetrahydro-1-naphthol.

In test [2] the target is T2, Aldo-keto reductase family 1 member C1 (Homo sapiens, UniProt Q04828).
T2 sequence (Q04828 whole entry): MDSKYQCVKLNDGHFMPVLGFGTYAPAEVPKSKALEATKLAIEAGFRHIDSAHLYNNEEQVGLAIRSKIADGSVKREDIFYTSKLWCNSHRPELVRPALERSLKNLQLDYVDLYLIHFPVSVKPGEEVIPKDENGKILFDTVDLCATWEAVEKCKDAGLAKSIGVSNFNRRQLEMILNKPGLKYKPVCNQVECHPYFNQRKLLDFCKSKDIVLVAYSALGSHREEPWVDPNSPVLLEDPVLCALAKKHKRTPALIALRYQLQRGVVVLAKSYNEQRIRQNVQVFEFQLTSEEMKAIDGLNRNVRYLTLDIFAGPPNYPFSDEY
Nature of the test: Inhibition of human recombinant AKR1C1-mediated NADP+-dependent oxidation of S-(+)-1,2,3,4-tetrahydro-1-naphthol.

Test [3] addresses T3, Aldo-keto reductase family 1 member C3 (Homo sapiens, UniProt P42330).
T3 sequence (P42330 whole entry): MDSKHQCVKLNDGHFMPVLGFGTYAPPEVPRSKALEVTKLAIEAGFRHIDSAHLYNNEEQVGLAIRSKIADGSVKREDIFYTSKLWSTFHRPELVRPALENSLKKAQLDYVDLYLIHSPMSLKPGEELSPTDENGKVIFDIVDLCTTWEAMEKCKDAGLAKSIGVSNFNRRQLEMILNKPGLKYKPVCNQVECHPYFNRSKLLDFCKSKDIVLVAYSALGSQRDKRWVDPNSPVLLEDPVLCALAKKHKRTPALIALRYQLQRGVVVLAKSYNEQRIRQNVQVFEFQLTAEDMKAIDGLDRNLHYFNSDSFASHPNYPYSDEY
Nature of the test: Inhibition of human recombinant AKR1C3-mediated NADP+-dependent oxidation of S-(+)-1,2,3,4-tetrahydro-1-naphthol.

Test [4] addresses T4, Aldo-keto reductase family 1 member C2 (Homo sapiens, UniProt P52895).
T4 sequence (P52895 whole entry): T2 sequence (Q04828 whole entry) with T38V, R47H, L54V, C87S, V151M, R170H, Q172L
Nature of the test: Inhibition of human recombinant AKR1C2-mediated NADP+-dependent oxidation of S-(+)-1,2,3,4-tetrahydro-1-naphthol.

In test [5] the target is T5, Prostaglandin G/H synthase 2 (Mus musculus, UniProt Q05769).
T5 sequence (Q05769 whole entry): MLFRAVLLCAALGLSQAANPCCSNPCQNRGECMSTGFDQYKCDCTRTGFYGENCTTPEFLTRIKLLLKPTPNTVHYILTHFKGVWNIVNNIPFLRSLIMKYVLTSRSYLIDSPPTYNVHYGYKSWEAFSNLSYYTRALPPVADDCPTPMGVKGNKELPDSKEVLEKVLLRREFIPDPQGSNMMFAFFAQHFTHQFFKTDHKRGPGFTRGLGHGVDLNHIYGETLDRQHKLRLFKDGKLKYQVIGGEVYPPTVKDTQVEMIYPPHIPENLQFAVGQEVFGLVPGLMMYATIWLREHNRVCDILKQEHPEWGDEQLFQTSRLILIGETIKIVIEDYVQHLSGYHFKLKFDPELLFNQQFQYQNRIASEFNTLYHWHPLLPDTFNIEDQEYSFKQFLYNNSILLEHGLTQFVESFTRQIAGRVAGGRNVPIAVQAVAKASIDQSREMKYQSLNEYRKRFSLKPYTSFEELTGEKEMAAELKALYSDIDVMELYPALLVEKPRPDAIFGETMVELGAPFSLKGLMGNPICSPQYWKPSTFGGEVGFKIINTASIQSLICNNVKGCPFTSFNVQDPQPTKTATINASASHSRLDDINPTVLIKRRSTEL
Description: Inhibition of wild type mouse COX2 by discontinuous radioactive TLC assay

In test [6] the target is T6, Prostaglandin G/H synthase 1 (Ovis aries, UniProt P05979).
T6 sequence (P05979 whole entry): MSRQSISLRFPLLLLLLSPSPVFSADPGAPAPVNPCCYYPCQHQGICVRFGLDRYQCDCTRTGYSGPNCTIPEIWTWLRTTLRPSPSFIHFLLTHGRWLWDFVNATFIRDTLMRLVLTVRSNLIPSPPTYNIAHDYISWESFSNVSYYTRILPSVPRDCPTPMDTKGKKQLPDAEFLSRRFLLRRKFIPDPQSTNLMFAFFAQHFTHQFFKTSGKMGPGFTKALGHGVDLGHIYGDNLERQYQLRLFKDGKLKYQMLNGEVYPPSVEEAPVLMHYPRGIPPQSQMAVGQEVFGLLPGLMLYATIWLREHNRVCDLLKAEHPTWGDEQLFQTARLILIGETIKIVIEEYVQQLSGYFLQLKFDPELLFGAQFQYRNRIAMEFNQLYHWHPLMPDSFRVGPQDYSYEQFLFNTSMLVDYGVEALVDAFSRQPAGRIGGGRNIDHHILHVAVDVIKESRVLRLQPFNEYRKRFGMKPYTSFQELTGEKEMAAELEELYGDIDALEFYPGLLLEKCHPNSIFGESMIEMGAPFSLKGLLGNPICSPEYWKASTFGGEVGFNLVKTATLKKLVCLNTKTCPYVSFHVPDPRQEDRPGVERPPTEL
Description: Inhibition of ovine COX1 by discontinuous radioactive TLC assay

With `COc1ccc2c(c1)c(CC(=O)O)c(C)n2C(=O)c1ccc(C)cc1`, the half-inhibitory concentration (IC50) in test [1] and in test [2] was more than 100 µM in each case.
Consider `COc1ccc2c(c1)c(CC(=O)O)c(C)n2C(=O)c1ccc(C(F)(F)F)cc1`, for which the IC50 in test [1] and in test [2] was more than 100 µM in each case.
As for `Cc1c(CC(=O)O)c2cc(F)ccc2n1C(=O)c1ccc(Cl)cc1`, the IC50 in test [3] is 0.25 µM; in test [4] it was 6.19 µM; in test [5], 0.09 µM; in test [6], 0.49 µM.
As for `COc1ccc2c(c1)c(CC(=O)NS(=O)(=O)C(F)(F)F)c(C)n2C(=O)c1ccc(Cl)cc1`, the IC50 in test [1] and in test [2] was more than 100 µM throughout.
In the case of `CCc1c(CCC(=O)O)n(C(=O)c2ccc(Cl)cc2)c2ccc(OC)cc12`, the midpoint of inhibition in test [5], the IC50, lay at 7 µM.
Take `COc1ccc2c(c1)c(CC(=O)O)cn2C(=O)c1ccc(Cl)cc1`: the IC50 in test [2] was more than 100 µM; in test [5] it was 3.27 µM; in test [6], 15.3 µM.
